Experimental data published in patent publication US12660819B2, “Herbicidal derivatives” (SYNGENTA CROP PROTECTION AG, priority 2020, dated 2026).

How the values were obtained:
Type in all cases: in vivo
[1] = system: Abutilon theophrasti (ABUTH); assay: Post-emergence Test (glasshouse, percentage damage to the plant); settings: post-emergence spray, 1000 g/ha unless otherwise stated, evaluated after 13 days
Procedure, shortened: (§1)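 Spray treatment of sown glasshouse pots at 1000 g/ha (default rate), vehicle acetone/water 50:50 plus 0.5% Tween 20. Read-out: percentage damage after 13 days, converted to a score where 5 denotes 81-100% and 1 denotes 0-20%.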

[2] = system: Amaranthus retoflexus (AMARE); assay: as above; settings: post-emergence spray, 1000 g/ha unless otherwise stated, evaluated after 13 days
Procedure, shortened: as §1

[3] = system: Echinochloa crus-galli (ECHCG); assay: as above; settings: post-emergence spray, 1000 g/ha unless otherwise stated, evaluated after 13 days
Procedure, shortened: as §1

[4] = system: Ipomoea hederacea (IPOHE); assay: as above; settings: post-emergence spray, 1000 g/ha unless otherwise stated, evaluated after 13 days
Procedure, shortened: (§2)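 Sown pots; spray 1000 g/ha (unless stated) in acetone/water 50:50 + 0.5% Tween 20; glasshouse 24/16 °C, 14 h light, 65% RH; watered twice daily; % damage read at 13 days, scored 1–5.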

Setaria faberi (SETFA) [5] = assay: as above; settings: post-emergence spray, 1000 g/ha unless otherwise stated, evaluated after 13 days
Procedure, shortened: as §2

Zea mays (ZEAMX) [6] = assay: as above; settings: post-emergence spray, 1000 g/ha unless otherwise stated, evaluated after 13 days
Procedure, shortened: as §2

[7] = system: Amaranthus retoflexus (AMARE); assay: Pre-emergence Test (glasshouse, percentage damage to the plant); settings: 1000 g/ha unless otherwise stated, five-point scale
Setaria faberi (SETFA) [8] = assay: as above; settings: 1000 g/ha unless otherwise stated, five-point scale
[9] = system: Echinochloa crus-galli (ECHCG); assay: as above; settings: 1000 g/ha unless otherwise stated, five-point scale
[10] = system: Ipomoea hederacea (IPOHE); assay: as above; settings: 1000 g/ha unless otherwise stated, five-point scale
[11] = system: Abutilon theophrasti (ABUTH); assay: as above; settings: 1000 g/ha unless otherwise stated, five-point scale
Zea mays (ZEAMX) [12] = assay: as above; settings: 1000 g/ha unless otherwise stated, five-point scale

CCn1c(C)c(-c2ccc(Cl)cc2)c(=O)c(C(=O)O)c1-c1ccc(F)cc1F [Compound 130, 5-(4-chlorophenyl)-2-(2,4-difluorophenyl)-1-ethyl-6-methyl-4-oxo-pyridine-3-carboxylic acid]
Post-emergence Test ABUTH, percentage damage to the plant (five-point scale) [1]: 3 (3=41-60%)
Post-emergence Test AMARE, percentage damage to the plant (five-point scale) [2]: 3 (3=41-60%)
Post-emergence Test ECHCG, percentage damage to the plant (five-point scale) [3]: 3 (3=41-60%)
Post-emergence Test IPOHE, percentage damage to the plant (five-point scale) [4]: 3 (3=41-60%)
Post-emergence Test SETFA, percentage damage to the plant (five-point scale) (Setaria faberi (SETFA) [5]): 4 (4=61-80%)
Post-emergence Test ZEAMX, percentage damage to the plant (five-point scale) (Zea mays (ZEAMX) [6]): 2 (2=21-40%)
percentage damage to the plant, AMARE [7]: 3 (3=41-60%)
percentage damage to the plant, SETFA (Setaria faberi (SETFA) [8]): 5 (5=81-100%)
percentage damage to the plant, ECHCG [9]: 4 (4=61-80%)
percentage damage to the plant, IPOHE [10]: 3 (3=41-60%)
percentage damage to the plant, ABUTH [11]: 3 (3=41-60%)
percentage damage to the plant, ZEAMX (Zea mays (ZEAMX) [12]): 3 (3=41-60%)

CCn1c(C)c(-c2ccc(Cl)cc2)c(=O)c(C(=O)O)c1-c1ccc(Cl)cn1 [Compound 131, 5-(4-chlorophenyl)-2-(5-chloro-2-pyridyl)-1-ethyl-6-methyl-4-oxo-pyridine-3-carboxylic acid]
Post-emergence Test ABUTH, percentage damage to the plant (five-point scale) [1]: 1 (1=0-20%)
Post-emergence Test AMARE, percentage damage to the plant (five-point scale) [2]: 1 (1=0-20%)
Post-emergence Test ECHCG, percentage damage to the plant (five-point scale) [3]: 0
Post-emergence Test IPOHE, percentage damage to the plant (five-point scale) [4]: 1 (1=0-20%)
Post-emergence Test SETFA, percentage damage to the plant (five-point scale) (Setaria faberi (SETFA) [5]): 3 (3=41-60%)
Post-emergence Test ZEAMX, percentage damage to the plant (five-point scale) (Zea mays (ZEAMX) [6]): 2 (2=21-40%)
percentage damage to the plant, AMARE [7]: 0
percentage damage to the plant, SETFA (Setaria faberi (SETFA) [8]): 0
percentage damage to the plant, ECHCG [9]: 0
percentage damage to the plant, IPOHE [10]: 0
percentage damage to the plant, ABUTH [11]: 0
percentage damage to the plant, ZEAMX (Zea mays (ZEAMX) [12]): 0

CCn1c(-c2ccc(Cl)c(Cl)c2)c(C(=O)O)c(=O)c(-c2ccc(Cl)cc2)c1C(F)(F)F [Compound 132, 5-(4-chlorophenyl)-2-(3,4-dichlorophenyl)-1-ethyl-4-oxo-6-(trifluoromethyl) pyridine-3-carboxylic acid]
Post-emergence Test ABUTH, percentage damage to the plant (five-point scale) [1]: 3 (3=41-60%)
Post-emergence Test AMARE, percentage damage to the plant (five-point scale) [2]: 5 (5=81-100%)
Post-emergence Test ECHCG, percentage damage to the plant (five-point scale) [3]: 0
Post-emergence Test IPOHE, percentage damage to the plant (five-point scale) [4]: 4 (4=61-80%)
Post-emergence Test SETFA, percentage damage to the plant (five-point scale) (Setaria faberi (SETFA) [5]): 0
Post-emergence Test ZEAMX, percentage damage to the plant (five-point scale) (Zea mays (ZEAMX) [6]): 1 (1=0-20%)
percentage damage to the plant, AMARE [7]: 5 (5=81-100%)
percentage damage to the plant, SETFA (Setaria faberi (SETFA) [8]): 0
percentage damage to the plant, ECHCG [9]: 0
percentage damage to the plant, IPOHE [10]: 2 (2=21-40%)
percentage damage to the plant, ABUTH [11]: 4 (4=61-80%)
percentage damage to the plant, ZEAMX (Zea mays (ZEAMX) [12]): 0

CCOC(=O)c1c(-c2ccc(F)cc2F)n(CC)c(C)c(-c2ccc(Cl)cc2)c1=O [Compound 134, ethyl 5-(4-chlorophenyl)-2-(2,4-difluorophenyl)-1-ethyl-6-methyl-4-oxo-pyridine-3-carboxylate]
Post-emergence Test ABUTH, percentage damage to the plant (five-point scale) [1]: 3 (3=41-60%)
Post-emergence Test AMARE, percentage damage to the plant (five-point scale) [2]: 3 (3=41-60%)
Post-emergence Test ECHCG, percentage damage to the plant (five-point scale) [3]: 4 (4=61-80%)
Post-emergence Test IPOHE, percentage damage to the plant (five-point scale) [4]: 3 (3=41-60%)
Post-emergence Test SETFA, percentage damage to the plant (five-point scale) (Setaria faberi (SETFA) [5]): 4 (4=61-80%)
Post-emergence Test ZEAMX, percentage damage to the plant (five-point scale) (Zea mays (ZEAMX) [6]): 3 (3=41-60%)
percentage damage to the plant, AMARE [7]: 1 (1=0-20%)
percentage damage to the plant, SETFA (Setaria faberi (SETFA) [8]): 0
percentage damage to the plant, ECHCG [9]: 0
percentage damage to the plant, IPOHE [10]: 0
percentage damage to the plant, ABUTH [11]: 1 (1=0-20%)
percentage damage to the plant, ZEAMX (Zea mays (ZEAMX) [12]): 0

CCn1c(C)c(-c2ccccc2)c(=O)c(C(=O)O)c1-c1ccc(F)cc1F [Compound 135, 2-(2,4-difluorophenyl)-1-ethyl-6-methyl-4-oxo-5-phenyl-pyridine-3-carboxylic acid]
Post-emergence Test ABUTH, percentage damage to the plant (five-point scale) [1]: 1 (1=0-20%)
Post-emergence Test AMARE, percentage damage to the plant (five-point scale) [2]: 2 (2=21-40%)
Post-emergence Test ECHCG, percentage damage to the plant (five-point scale) [3]: 0
Post-emergence Test IPOHE, percentage damage to the plant (five-point scale) [4]: 1 (1=0-20%)
Post-emergence Test SETFA, percentage damage to the plant (five-point scale) (Setaria faberi (SETFA) [5]): 0
Post-emergence Test ZEAMX, percentage damage to the plant (five-point scale) (Zea mays (ZEAMX) [6]): 0
percentage damage to the plant, AMARE [7]: 1 (1=0-20%)
percentage damage to the plant, SETFA (Setaria faberi (SETFA) [8]): 5 (5=81-100%)
percentage damage to the plant, ECHCG [9]: 2 (2=21-40%)
percentage damage to the plant, IPOHE [10]: 3 (3=41-60%)
percentage damage to the plant, ABUTH [11]: 3 (3=41-60%)
percentage damage to the plant, ZEAMX (Zea mays (ZEAMX) [12]): 0

CCn1c(C)c(-c2ccc(OC(F)(F)F)cc2)c(=O)c(C(=O)O)c1-c1ccc(F)cc1F [Compound 136, 2-(2,4-difluorophenyl)-1-ethyl-6-methyl-4-oxo-5-[4-(trifluoromethoxy)phenyl]pyridine-3-carboxylic acid]
Post-emergence Test ABUTH, percentage damage to the plant (five-point scale) [1]: 3 (3=41-60%)
Post-emergence Test AMARE, percentage damage to the plant (five-point scale) [2]: 3 (3=41-60%)
Post-emergence Test ECHCG, percentage damage to the plant (five-point scale) [3]: 3 (3=41-60%)
Post-emergence Test IPOHE, percentage damage to the plant (five-point scale) [4]: 2 (2=21-40%)
Post-emergence Test SETFA, percentage damage to the plant (five-point scale) (Setaria faberi (SETFA) [5]): 4 (4=61-80%)
Post-emergence Test ZEAMX, percentage damage to the plant (five-point scale) (Zea mays (ZEAMX) [6]): 1 (1=0-20%)
percentage damage to the plant, AMARE [7]: 2 (2=21-40%)
percentage damage to the plant, SETFA (Setaria faberi (SETFA) [8]): 5 (5=81-100%)
percentage damage to the plant, ECHCG [9]: 3 (3=41-60%)
percentage damage to the plant, IPOHE [10]: 2 (2=21-40%)
percentage damage to the plant, ABUTH [11]: 3 (3=41-60%)
percentage damage to the plant, ZEAMX (Zea mays (ZEAMX) [12]): 1 (1=0-20%)

CCOC(=O)c1c(-c2ccc(Br)cc2F)n(CC)c(C)c(-c2ccc(Cl)cc2)c1=O [Compound 137, ethyl 2-(4-bromo-2-fluoro-phenyl)-5-(4-chlorophenyl)-1-ethyl-6-methyl-4-oxo-pyridine-3-carboxylate]
Post-emergence Test ABUTH, percentage damage to the plant (five-point scale) [1]: 3 (3=41-60%)
Post-emergence Test AMARE, percentage damage to the plant (five-point scale) [2]: 3 (3=41-60%)
Post-emergence Test ECHCG, percentage damage to the plant (five-point scale) [3]: 4 (4=61-80%)
Post-emergence Test IPOHE, percentage damage to the plant (five-point scale) [4]: 3 (3=41-60%)
Post-emergence Test SETFA, percentage damage to the plant (five-point scale) (Setaria faberi (SETFA) [5]): 3 (3=41-60%)
Post-emergence Test ZEAMX, percentage damage to the plant (five-point scale) (Zea mays (ZEAMX) [6]): 2 (2=21-40%)
percentage damage to the plant, AMARE [7]: 5 (5=81-100%)
percentage damage to the plant, SETFA (Setaria faberi (SETFA) [8]): 1 (1=0-20%)
percentage damage to the plant, ECHCG [9]: 0
percentage damage to the plant, IPOHE [10]: 0
percentage damage to the plant, ABUTH [11]: 0
percentage damage to the plant, ZEAMX (Zea mays (ZEAMX) [12]): 0

CCn1c(C)c(-c2ccc(Cl)cc2)c(=O)c(C(=O)O)c1-c1ccc(Cl)cc1 [Compound 138, 2,5-bis(4-chlorophenyl)-1-ethyl-6-methyl-4-oxo-pyridine-3-carboxylic acid]
Post-emergence Test ABUTH, percentage damage to the plant (five-point scale) [1]: 3 (3=41-60%)
Post-emergence Test AMARE, percentage damage to the plant (five-point scale) [2]: 1 (1=0-20%)
Post-emergence Test ECHCG, percentage damage to the plant (five-point scale) [3]: 2 (2=21-40%)
Post-emergence Test IPOHE, percentage damage to the plant (five-point scale) [4]: 1 (1=0-20%)
Post-emergence Test SETFA, percentage damage to the plant (five-point scale) (Setaria faberi (SETFA) [5]): 3 (3=41-60%)
Post-emergence Test ZEAMX, percentage damage to the plant (five-point scale) (Zea mays (ZEAMX) [6]): 0
percentage damage to the plant, AMARE [7]: 5 (5=81-100%)
percentage damage to the plant, SETFA (Setaria faberi (SETFA) [8]): 5 (5=81-100%)
percentage damage to the plant, ECHCG [9]: 3 (3=41-60%)
percentage damage to the plant, IPOHE [10]: 1 (1=0-20%)
percentage damage to the plant, ABUTH [11]: 3 (3=41-60%)
percentage damage to the plant, ZEAMX (Zea mays (ZEAMX) [12]): 1 (1=0-20%)
